{"source": "the OligoGym collection", "biological_target": "DGAT2", "settings": "ASO", "note": "“And” between values parts separate entries of the source, which are not always exact repeats. Identical values can stand only once. After the bases stand the sugars from the 5' end (letter, count) and the backbone: PS all phosphorothioate, else s phosphorothioate and o phosphodiester by linkage. Methylation of C is not given here. e = 2'-O-(2-methoxyethyl) (MOE); d = 2'-deoxy (DNA)"}
{"sequence": "AAATAACCCACAGACACCCA (sugars e5 d10 e5, PS)", "values": [{"measurement": "target mRNA inhibition", "setting": "HepG2, 0.12 µM", "value": 10, "unit": "%"}, {"measurement": "target mRNA inhibition", "setting": "HepG2, 2.5 µM", "value": "52% and 50% and 46%"}, {"measurement": "target mRNA inhibition", "setting": "HepG2, 10 µM", "value": "96% and 85%"}, {"measurement": "target mRNA inhibition", "setting": "HepG2, 20 µM", "value": 97, "unit": "%"}]}
{"sequence": "AACCACAGCGATAATCACAC (sugars e5 d10 e5, PS)", "values": [{"measurement": "target mRNA inhibition", "setting": "HepG2, 2.5 µM", "value": 66, "unit": "%"}, {"measurement": "target mRNA inhibition", "setting": "HepG2, 10 µM", "value": 91, "unit": "%"}]}
{"sequence": "AAGATATAGTTCCTGGTGGT (sugars e5 d10 e5, PS)", "values": [{"measurement": "target mRNA inhibition", "setting": "HepG2, 0.12 µM", "value": 41, "unit": "%"}]}
{"sequence": "AAGGAAAACTTAGGCATGCT (sugars e5 d10 e5, PS)", "values": [{"measurement": "target mRNA inhibition", "setting": "HepG2, 2.5 µM", "value": 63, "unit": "%"}, {"measurement": "target mRNA inhibition", "setting": "HepG2, 10 µM", "value": 80, "unit": "%"}]}
{"sequence": "AAGGAGTTTGTGTTTCCCAT (sugars e5 d10 e5, PS)", "values": [{"measurement": "target mRNA inhibition", "setting": "HepG2, 2.5 µM", "value": "71% and 65%"}, {"measurement": "target mRNA inhibition", "setting": "HepG2, 10 µM", "value": "91% and 85%"}]}
{"sequence": "AAGGCCGTATGCCTGGGAAC (sugars e5 d10 e5, PS)", "values": [{"measurement": "target mRNA inhibition", "setting": "HepG2, 0.12 µM", "value": 25, "unit": "%"}]}
{"sequence": "AATAGTCTATGGTGTCCCGG (sugars e5 d10 e5, PS)", "values": [{"measurement": "target mRNA inhibition", "setting": "HepG2, 0.12 µM", "value": 63, "unit": "%"}]}
{"sequence": "AATCCAACCCTTGTCACTCT (sugars e5 d10 e5, PS)", "values": [{"measurement": "target mRNA inhibition", "setting": "HepG2, 2.5 µM", "value": 33, "unit": "%"}, {"measurement": "target mRNA inhibition", "setting": "HepG2, 10 µM", "value": 94, "unit": "%"}]}
{"sequence": "AATCTGTGTGACCTTGGGCA (sugars e5 d10 e5, PS)", "values": [{"measurement": "target mRNA inhibition", "setting": "HepG2, 2.5 µM", "value": "87% and 82%"}, {"measurement": "target mRNA inhibition", "setting": "HepG2, 10 µM", "value": "84% and 93%"}]}
{"sequence": "AATGGAGTGACAGGGCAGGA (sugars e5 d10 e5, PS)", "values": [{"measurement": "target mRNA inhibition", "setting": "HepG2, 2.5 µM", "value": 54, "unit": "%"}, {"measurement": "target mRNA inhibition", "setting": "HepG2, 10 µM", "value": 81, "unit": "%"}]}
{"sequence": "AATGGGAATGGTATCGCACT (sugars e5 d10 e5, PS)", "values": [{"measurement": "target mRNA inhibition", "setting": "HepG2, 2.5 µM", "value": 58, "unit": "%"}, {"measurement": "target mRNA inhibition", "setting": "HepG2, 10 µM", "value": 89, "unit": "%"}]}
{"sequence": "ACAAAGTCTATCAGGATGCA (sugars e5 d10 e5, PS)", "values": [{"measurement": "target mRNA inhibition", "setting": "HepG2, 2.5 µM", "value": 53, "unit": "%"}, {"measurement": "target mRNA inhibition", "setting": "HepG2, 10 µM", "value": 91, "unit": "%"}]}
{"sequence": "ACAACTCTCTTGTTGGGAGG (sugars e5 d10 e5, PS)", "values": [{"measurement": "target mRNA inhibition", "setting": "HepG2, 2.5 µM", "value": 64, "unit": "%"}, {"measurement": "target mRNA inhibition", "setting": "HepG2, 10 µM", "value": 84, "unit": "%"}]}
{"sequence": "ACAATTCCTGGATAACAAGG (sugars e5 d10 e5, PS)", "values": [{"measurement": "target mRNA inhibition", "setting": "HepG2, 0.12 µM", "value": 41, "unit": "%"}]}
{"sequence": "ACAGAAAAGTGAGGCTTGGG (sugars e5 d10 e5, PS)", "values": [{"measurement": "target mRNA inhibition", "setting": "HepG2, 0.12 µM", "value": 40, "unit": "%"}]}
{"sequence": "ACAGGAAGCCTGGTGACTGC (sugars e5 d10 e5, PS)", "values": [{"measurement": "target mRNA inhibition", "setting": "HepG2, 0.12 µM", "value": 54, "unit": "%"}]}
{"sequence": "ACAGGGCAGATACCTCCAGA (sugars e5 d10 e5, PS)", "values": [{"measurement": "target mRNA inhibition", "setting": "HepG2, 0.12 µM", "value": 58, "unit": "%"}]}
{"sequence": "ACCACAGCGATAATCAC (sugars e3 d10 e4, PS)", "values": [{"measurement": "target mRNA inhibition", "setting": "HepG2, 2.5 µM", "value": 50, "unit": "%"}, {"measurement": "target mRNA inhibition", "setting": "HepG2, 10 µM", "value": 75, "unit": "%"}]}
{"sequence": "ACCAGCCAGGCCCAGACCCA (sugars e5 d10 e5, PS)", "values": [{"measurement": "target mRNA inhibition", "setting": "HepG2, 2.5 µM", "value": 21, "unit": "%"}, {"measurement": "target mRNA inhibition", "setting": "HepG2, 10 µM", "value": 43, "unit": "%"}]}
{"sequence": "ACCAGCTGCAAGGATGACCT (sugars e5 d10 e5, PS)", "values": [{"measurement": "target mRNA inhibition", "setting": "HepG2, 0.12 µM", "value": 49, "unit": "%"}]}
{"sequence": "ACCCACTGGAGCACTGAGAT (sugars e2 d13 e5, PS)", "values": [{"measurement": "target mRNA inhibition", "setting": "HepG2, 0.12 µM", "value": 52, "unit": "%"}]}
{"sequence": "ACCCAGAGATGGTGATAAGG (sugars e5 d10 e5, PS)", "values": [{"measurement": "target mRNA inhibition", "setting": "HepG2, 0.12 µM", "value": 53, "unit": "%"}]}
{"sequence": "ACCCATCGGCCCCAGGAGCC (sugars e5 d10 e5, PS)", "values": [{"measurement": "target mRNA inhibition", "setting": "HepG2, 0.12 µM", "value": 59, "unit": "%"}]}
{"sequence": "ACCTGGGTTTTTGTGTATTC (sugars e5 d10 e5, PS)", "values": [{"measurement": "target mRNA inhibition", "setting": "HepG2, 2.5 µM", "value": "86% and 87%"}, {"measurement": "target mRNA inhibition", "setting": "HepG2, 10 µM", "value": "86% and 90%"}]}
{"sequence": "ACTTCATTCTCTCCAAAGGA (sugars e5 d10 e5, PS)", "values": [{"measurement": "target mRNA inhibition", "setting": "HepG2, 0.12 µM", "value": 45, "unit": "%"}]}
{"sequence": "AGAAAAACCAGTTACTCCAC (sugars e5 d10 e5, PS)", "values": [{"measurement": "target mRNA inhibition", "setting": "HepG2, 0.12 µM", "value": 4, "unit": "%"}]}
{"sequence": "AGAAGGCACCCAGGCCCATG (sugars e5 d10 e5, PS)", "values": [{"measurement": "target mRNA inhibition", "setting": "HepG2, 0.12 µM", "value": 38, "unit": "%"}]}
{"sequence": "AGAGCACAGCGATGAGCCAG (sugars e5 d10 e5, PS)", "values": [{"measurement": "target mRNA inhibition", "setting": "HepG2, 2.5 µM", "value": 52, "unit": "%"}, {"measurement": "target mRNA inhibition", "setting": "HepG2, 10 µM", "value": 85, "unit": "%"}]}
{"sequence": "AGAGCCAGCACACAGCTATG (sugars e5 d10 e5, PS)", "values": [{"measurement": "target mRNA inhibition", "setting": "HepG2, 0.12 µM", "value": 20, "unit": "%"}]}
{"sequence": "AGAGCTTCACCAGGGCCTCC (sugars e5 d10 e5, PS)", "values": [{"measurement": "target mRNA inhibition", "setting": "HepG2, 0.12 µM", "value": 46, "unit": "%"}]}
{"sequence": "AGATGCCACTTCATCAAGGC (sugars e5 d10 e5, PS)", "values": [{"measurement": "target mRNA inhibition", "setting": "HepG2, 0.12 µM", "value": 24, "unit": "%"}]}
{"sequence": "AGCAGGTTGTGTGTCTTCAC (sugars e5 d10 e5, PS)", "values": [{"measurement": "target mRNA inhibition", "setting": "HepG2, 0.12 µM", "value": "55% and 77%"}, {"measurement": "target mRNA inhibition", "setting": "HepG2, 2.5 µM", "value": 0, "unit": "%"}]}
{"sequence": "AGCAGTCTGCCTGATTCCCT (sugars e5 d10 e5, PS)", "values": [{"measurement": "target mRNA inhibition", "setting": "HepG2, 2.5 µM", "value": "69% and 44%"}, {"measurement": "target mRNA inhibition", "setting": "HepG2, 10 µM", "value": "87% and 82%"}]}
{"sequence": "AGCCAGGTAAGGCCGTATGC (sugars e2 d13 e5, PS)", "values": [{"measurement": "target mRNA inhibition", "setting": "HepG2, 0.12 µM", "value": 67, "unit": "%"}]}
{"sequence": "AGCCTGGACAAGTCCTGCCC (sugars e2 d13 e5, PS)", "values": [{"measurement": "target mRNA inhibition", "setting": "HepG2, 0.12 µM", "value": 75, "unit": "%"}]}
